Reference: patent publication US20260183274A1, “PDK1 REGULATORY COMPOUND AND COMPOSITION CONTAINING THE SAME” (PROVIBIO CO., LTD., priority 2024, published 2026)

Tested on: T cells isolated from mouse spleens
Assay: T cell proliferation inhibition (CFSE flow cytometry, anti-CD3/anti-CD28 stimulation)
Format: cell-based
Conditions: mouse spleen T cells, 3 days; for inhibition at 0.01 µM / inhibition at 0.1 µM / inhibition at 1 µM / inhibition at 10 µM / inhibition at 30 µM / inhibition at 50 µM: Mus musculus, T-cell, 72 h, read-out: Proliferation inhibition rate (%)
Procedure: To verify the T cell proliferation inhibitory effect of the compounds according to the present invention, the following experiment was performed based on flow cytometry analysis using carboxyfluorescein diacetate succinimidyl ester (CFSE), a fluorescent dye that binds to intracellular molecules via covalent bonds.
Spleens were extracted from 7-week-old C57BL/6 mice, ground, and then separated into single cells using a strainer (40 μm pore size, SPL). Red blood cells were removed using ACK (Ammonium-Chloride-Potassium) lysis buffer to isolate white blood cells.
Finally, using a MACS Magnetic Stand and LS column, T cells were isolated from the spleen.
The T cells isolated from the spleen were resuspended in 1 mL of free medium (RPMI-1640+200 U/mL penicillin+200 μg/mL streptomycin), and 0.3 μL of CFSE (10 mM) was added. The mixture was incubated at 37° C. for 5 minutes.
Free medium (10 mL) was added to stop the reaction, and the cells were centrifuged to obtain the cell pellet.
RPMI 1640 medium containing 10% FBS, 100 U/mL penicillin, 100 μg/mL streptomycin, and resuspended the cells. The cells were then seeded into a 96-well plate at a density of 2×10^5 cells per well and activated with CD3 and CD28 antibodies (0.5 μg/mL each) to activate T cells.
The compound diluted in DMSO was added at concentrations of 10 nM, 100 nM, 1 μM, 10 μM, 30 μM, and 50 μM, with three wells per concentration, and cultured at 37° C. and 5% CO2 for three days. The cells were then analyzed using a FACS Canto instrument.
The proliferation inhibition rate (%) was calculated using the following formula: […]

Row | SMILES | Proliferation inhibition rate (%) (compound 10 nM) | Proliferation inhibition rate (%) (compound 100 nM) | Proliferation inhibition rate (%) (compound 1 μM) | Proliferation inhibition rate (%) (compound 10 μM) | Proliferation inhibition rate (%) (compound 30 μM) | Proliferation inhibition rate (%) (compound 50 μM) | inhibition at 0.01 µM (compound 10 nM) [%] | inhibition at 0.1 µM (compound 100 nM) [%] | inhibition at 1 µM (compound 1 μM) [%] | inhibition at 10 µM (compound 10 μM) [%] | inhibition at 30 µM (compound 30 μM) [%] | inhibition at 50 µM (compound 50 μM) [%]
1 | Nc1ncccc1C(=O)NCCCCCCCCCCCCNC1CCOC1 (stereo not drawn) [Compound 128, 2-amino-N-(12-((tetrahydrofuran-3-yl)amino)dodecyl) nicotinamide] | −7.16 | 100.00 | 100.00 | 100.00 | 100.00 | 100.00 | – | – | – | – | – | –
2 | C[C@@H](C(=O)O)N(C=O)CCCCCCCCCCCCNC(=O)c1cccnc1N [Compound 130, N-(12-(2-aminonicotinamido)dodecyl)-N-formylalanine] | – | – | – | – | – | – | -4.33 | -5.22 | 13.6 | 85.4 | 100 | 100
3 | CN1CCN(CCCCCCCCCCCCNC(=O)c2ccccc2C(=O)NC2CCCCC2)CC1 [Compound 191, N1-Cyclohexyl-N2-(12-(4-methylpiperazin-1-yl)dodecyl)phthalamide] | – | – | – | – | – | – | 0 | 0 | 7.39 | 93.3 | 100 | 100
4 | CN1CCN(CCCCCCCCCCCCNC(=O)c2ccccc2-c2ncc[nH]2)CC1 [Compound 192, 2-(1H-imidazol-2-yl)-N-(12-(4-methylpiperazin-1-yl)dodecyl)benzamide] | – | – | – | – | – | – | -3.25 | -0.84 | 0.96 | 99.8 | 100 | 100
5 | CN1CCN(CCCCCCCCCCCCNC(=O)c2ccccc2-n2cccc2)CC1 [Compound 193, N-(12-(4-methylpiperazin-1-yl)dodecyl)-2-(1H-pyrrol-1-yl)benzamide] | – | – | – | – | – | – | 5.02 | 4.87 | 12 | 100 | 100 | 100
6 | CN1CCN(CCCCCCCCCCCCNC(=O)c2ccccc2-c2ccccc2)CC1 [Compound 194, N-(12-(4-methylpiperazin-1-yl)dodecyl)-[1,1′-biphenyl]-2-carboxamide] | – | – | – | – | – | – | -4.09 | -2.4 | -1.68 | 100 | 100 | 100
7 | CN1CCN(CCCCCCCCCCCCNC(=O)c2ccnc(-c3ccccn3)c2)CC1 [Compound 195, N-(12-(4-methylpiperazin-1-yl)dodecyl)-[2,2′-bipyridine]-4-carboxamide] | – | – | – | – | – | – | 1.77 | 2.81 | -7.83 | 100 | 100 | 100
8 | CN1CCN(CCCCCCCCCCCCNC(=O)c2ccccc2Cc2ccccc2)CC1 [Compound 196, 2-Benzyl-N-(12-(4-methylpiperazin-1-yl)dodecyl)benzamide] | – | – | – | – | – | – | 5.21 | 4.05 | 12.3 | 100 | 100 | 100
9 | CN1CCN(CCCCCCCCCCCCNC(=O)c2cccc(N)c2I)CC1 [Compound 197, 3-Amino-2-iodo-N-(12-(4-methylpiperazin-1-yl)dodecyl)benzamide] | – | – | – | – | – | – | 7.81 | 10.3 | 16.4 | 98 | 100 | 100
10 | CN1CCN(CCCCCCCCCCCCNC(=O)c2ccnc(Cl)c2Cl)CC1 [Compound 198, 2,3-Dichloro-N-(12-(4-methylpiperazin-1-yl)dodecyl)isonicotinamide] | – | – | – | – | – | – | 5.35 | 9.41 | 20.1 | 100 | 100 | 100
11 | CN1CCN(CCCCCCCCCCCCNC(=O)c2ccncc2Cl)CC1 [Compound 199, 3-Chloro-N-(12-(4-methylpiperazin-1-yl)dodecyl)isonicotinamide] | – | – | – | – | – | – | 0 | 0 | 0 | 40 | 100 | 100
12 | COc1ncccc1C(=O)NCCCCCCCCCCCCN1CCN(C)CC1 [Compound 200, 2-Methoxy-N-(12-(4-methylpiperazin-1-yl)dodecyl)nicotinamide] | – | – | – | – | – | – | 0 | 0 | 0 | 80 | 100 | 100
13 | CN1CCN(CCCCCCCCCCCCNC(=O)c2c(Cl)cncc2Cl)CC1 [Compound 201, 3,5-Dichloro-N-(12-(4-methylpiperazin-1-yl)dodecyl)isonicotinamide] | – | – | – | – | – | – | 7.24 | 6.66 | 8.54 | 78.4 | 100 | 100
14 | Cc1ccc(C(=O)NCCCCCCCCCCCCN2CCN(C)CC2)nc1 [Compound 202, 5-Methyl-N-(12-(4-methylpiperazin-1-yl)dodecyl)picolinamide] | – | – | – | – | – | – | 4.05 | 13.2 | 19 | 100 | 100 | 100
15 | CN1CCN(CCCCCCCCCCCCNC(=O)c2ccc(F)cn2)CC1 [Compound 203, 5-Fluoro-N-(12-(4-methylpiperazin-1-yl)dodecyl)picolinamide] | – | – | – | – | – | – | -4.49 | 1.16 | 6.8 | 100 | 100 | 100
16 | COc1ccc(C(=O)NCCCCCCCCCCCCN2CCN(C)CC2)nc1 [Compound 204, 5-methoxy-N-(12-(4-methylpiperazin-1-yl)dodecyl)picolinamide] | – | – | – | – | – | – | -2.6 | -0.14 | 12.3 | 95 | 100 | 100
17 | Cc1nccn1-c1cccc(C(=O)NCCCCCCCCCCCCN2CCN(C)CC2)c1 [Compound 207, 3-(2-methyl-1H-imidazol-1-yl)-N-(12-(4-methylpiperazin-1-yl)dodecyl)benzamide] | – | – | – | – | – | – | -5.35 | -3.91 | -3.04 | 100 | 100 | 100
18 | CN1CCN(CCCCCCCCCCCCNC(=O)c2ccc(-c3ncn[nH]3)cc2)CC1 [Compound 208, N-(12-(4-methylpiperazin-1-yl)dodecyl)-4-(1H-1,2,4-triazol-5-yl)benzamide] | – | – | – | – | – | – | 2.46 | -0.58 | 10.6 | 100 | 100 | 100
19 | CN1CCN(CCCCCCCCCCCCNC(=O)c2ccncc2N)CC1 [Compound 209, 3-Amino-N-(12-(4-methylpiperazin-1-yl)dodecyl)isonicotinamide] | – | – | – | – | – | – | -1.45 | 1.59 | 18.8 | 84.5 | 100 | 100
